± gives the standard deviation of the averaged measurements.
How the values were obtained:
Assay in all cases: level (log10 ratio to DMSO vehicle control); higher = higher biomarker level / cell amount than vehicle control
[1] = compound: O=C(O)C(F)(F)C(F)(F)C(F)(F)C(F)(F)C(F)(F)C(F)(F)C(F)(F)C(F)(F)C(F)(F)C(F)F [11-H-Perfluoroundecanoic acid]; conditions: in DMSO
Experimental: (§1)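 BioMAP Diversity Plus panel of 12 human primary cell co-culture systems (3C, 4H, LPS, SAg, BT, BF4T, BE3C, CASM3C, HDF3CGF, KF3CT, MyoF, Mphg). Compounds were added 1 h before stimulation and left for 24 h (MyoF 48 h; BT 72 h for soluble read-outs or 6 d for IgG). Biomarkers were read by ELISA, cytotoxicity by SRB, PBMC viability and proliferation by Alamar Blue. Each well value was divided by the mean of 8 DMSO control wells on the same plate and log10 transformed; duplicate blinded samples were tested at 4 concentrations.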

[2] = compound: O=S(=O)(O)C(F)(F)C(F)(F)C(F)(F)C(F)(F)C(F)(F)C(F)(F)C(F)(F)C(F)(F)C(F)(F)C(F)(F)F [Sodium perfluorodecanesulfonate]; conditions: in DMSO
Experimental: as §1

[3] = compound: FC(F)(F)C(F)(F)C(F)(F)C(F)(F)C(F)(F)C(F)(F)CC1CO1 [3-(Perfluorohexyl)-1,2-epoxypropane]; conditions: in DMSO
Experimental: as §1

[4] = compound: C=C(C)C(=O)OCCC(F)(F)C(F)(F)C(F)(F)C(F)(F)C(F)(F)C(F)(F)F [6:2 Fluorotelomer methacrylate]; conditions: in DMSO
Experimental: as §1

[5] = compound: NC(=O)C(F)(F)C(F)(F)C(F)(F)C(F)(F)C(N)=O [Octafluoroadipamide]; conditions: in DMSO
Experimental: as §1

[6] = compound: O=S(=O)(Cl)C(F)(F)C(F)(F)C(F)(F)C(F)(F)C(F)(F)C(F)(F)C(F)(F)C(F)(F)F [Perfluoro-1-octanesulfonyl chloride]; conditions: in DMSO
Experimental: as §1

[7] = compound: NC(=O)C(F)(F)C(F)(F)C(F)(F)C(F)(F)F [Nonafluoropentanamide]; conditions: in DMSO
Experimental: as §1

[8] = compound: FC(F)(F)C(F)(F)C(F)(F)CC1CO1 [1H,1H-Heptafluorobutyl epoxide]; conditions: in DMSO
Experimental: as §1

[9] = compound: O=S(=O)(F)C(F)(F)C(F)(F)C(F)(F)C(F)(F)C(F)(F)C(F)(F)C(F)(F)C(F)(F)F [Perfluorooctanesulfonyl fluoride]; conditions: in DMSO
Experimental: as §1

[10] = compound: FC(F)(F)C(F)(F)C(F)(F)CI [Heptafluorobutyl iodide]; conditions: in DMSO
Experimental: as §1

[11] = compound: NC(=O)C(F)(F)C(F)(F)C(F)(F)C(F)F; conditions: in DMSO
Experimental: as §1

[12] = compound: OCC(F)(F)C(F)(F)C(F)(F)CO [Hexafluoroamylene glycol]; conditions: in DMSO
Experimental: as §1

[13] = compound: FC(F)(F)C(F)(F)C(F)(F)C(F)(F)C(F)(F)C(F)(F)C(F)(F)I [1-Iodopentadecafluoroheptane]; conditions: in DMSO
Experimental: as §1

[14] = compound: O=C(O)C=CC(F)(C(F)(F)F)C(F)(F)F [3-(Perfluoroisopropyl)-2-propenoic acid]; conditions: in DMSO
Experimental: as §1

[15] = compound: FC(F)(F)C(F)(F)CNCC(F)(F)C(F)(F)F [Bis(1H,1H-perfluoropropyl)amine]; conditions: in DMSO
Experimental: as §1

[16] = compound: O=S(=O)(O)CCC(F)(F)C(F)(F)C(F)(F)C(F)(F)C(F)(F)C(F)(F)F [6:2 Fluorotelomer sulfonic acid]; conditions: in DMSO
Experimental: as §1

[17] = compound: C=CC(=O)OCC(F)(F)C(F)(F)C(F)(F)COC(=O)C=C [1H,1H,5H,5H-Perfluoro-1,5-pentanediol diacrylate]; conditions: 6700 nM; in DMSO
Experimental: as §1

[18] = compound: NS(=O)(=O)C(F)(F)C(F)(F)C(F)(F)C(F)(F)C(F)(F)C(F)(F)F [Perfluorohexanesulfonamide]; conditions: in DMSO
Experimental: as §1

[19] = compound: COC(=O)C(F)(F)C(F)(F)OC(F)(C(F)(F)F)C(F)(F)OC(F)=C(F)F [Methyl perfluoro(3-(1-ethenyloxypropan-2-yloxy)propanoate)]; conditions: in DMSO
Experimental: as §1

HDF3CGF:CXCL8/IL-8
level (log10) ([1]; 6700 nM): -0.009 ± 0.0071
level (log10) ([1]; 20000 nM): -0.003 ± 0.016
level (log10) ([2]; 1500 nM): -0.0055 ± 0.0035
level (log10) ([2]; 4400 nM): -0.0095 ± 0.005
level (log10) ([2]; 13000 nM): 0.0165 ± 0.016
level (log10) ([2]; 40000 nM): 0.023 ± 0.0028
level (log10) ([3]; 6700 nM): -0.0175 ± 0.0035
level (log10) ([3]; 20000 nM): 0.005 ± 0.0028
level (log10) ([3]; 60000 nM): 0.0145 ± 0.0064
level (log10) ([4]; 6700 nM): 0.007 ± 0.018
level (log10) ([4]; 20000 nM): 0.0045 ± 0.015
level (log10) ([4]; 60000 nM): 0.0035 ± 0.011
level (log10) ([5]; 6700 nM): 0.006 ± 0.017
level (log10) ([5]; 20000 nM): 0.0045 ± 0.0092
level (log10) ([5]; 60000 nM): 0.007 ± 0.0028
level (log10) ([6]; 6700 nM): -0.008 ± 0.0014
level (log10) ([6]; 20000 nM): 0.0065 ± 0.0092
level (log10) ([6]; 60000 nM): 0.0265 ± 0.012
level (log10) ([7]; 6700 nM): -0.0045 ± 0.0035
level (log10) ([7]; 20000 nM): -0.0005 ± 0.0021
level (log10) ([7]; 60000 nM): 0.0015 ± 0.005
level (log10) ([8]; 6700 nM): -0.0075 ± 0.022
level (log10) ([8]; 20000 nM): -0.0115 ± 0.0078
level (log10) ([8]; 60000 nM): 0.0005 ± 0.0078
level (log10) ([9]; 6700 nM): -0.002 ± 0.0028
level (log10) ([9]; 20000 nM): -0.0015 ± 0.00071
level (log10) ([9]; 60000 nM): 0.0085 ± 0.0021
level (log10) ([10]; 6700 nM): -0.003 ± 0.0057
level (log10) ([10]; 20000 nM): 0.0005 ± 0.00071
level (log10) ([10]; 60000 nM): 0.0125 ± 0.0092
level (log10) ([11]; 6700 nM): -0.0085 ± 0.0035
level (log10) ([11]; 20000 nM): 0.0015 ± 0.0078
level (log10) ([11]; 60000 nM): 0.0045 ± 0.018
level (log10) ([12]; 6700 nM): -0.0325 ± 0.04
level (log10) ([12]; 20000 nM): -0.011 ± 0.0028
level (log10) ([12]; 60000 nM): 0.009 ± 0.024
level (log10) ([13]; 6700 nM): -0.0055 ± 0.00071
level (log10) ([13]; 20000 nM): -0.001
level (log10) ([14]; 6700 nM): -0.008 ± 0.0042
level (log10) ([14]; 20000 nM): 0.004 ± 0.011
level (log10) ([14]; 60000 nM): 0.0065 ± 0.013
level (log10) ([15]; 6700 nM): -0.003
level (log10) ([15]; 20000 nM): -0.011 ± 0.0042
level (log10) ([15]; 60000 nM): 0.007 ± 0.016
level (log10) ([16]; 6700 nM): -0.01 ± 0.014
level (log10) ([16]; 20000 nM): -0.007 ± 0.013
level (log10) ([16]; 60000 nM): 0.008 ± 0.037
level (log10) [17]: -1.07 ± 0.012
level (log10) ([18]; 6700 nM): 0.0015 ± 0.0021
level (log10) ([18]; 20000 nM): 0.0035 ± 0.0021
level (log10) ([18]; 60000 nM): 0.017 ± 0.013
level (log10) ([19]; 6700 nM): 0.0045 ± 0.011
level (log10) ([19]; 20000 nM): 0.0245 ± 0.0064

BE3C:MMP-9
level (log10) ([1]; 6700 nM): -0.058 ± 0.04
level (log10) ([1]; 20000 nM): -0.277 ± 0.049
level (log10) ([2]; 1500 nM): -0.0125 ± 0.04
level (log10) ([2]; 4400 nM): 0.0105 ± 0.005
level (log10) ([2]; 13000 nM): -0.0785 ± 0.013
level (log10) ([2]; 40000 nM): -0.302 ± 0.041
level (log10) ([3]; 6700 nM): -0.036 ± 0.0042
level (log10) ([3]; 20000 nM): -0.036
level (log10) ([3]; 60000 nM): -0.004 ± 0.042
level (log10) ([4]; 6700 nM): 0.014 ± 0.0071
level (log10) ([4]; 20000 nM): 0.015 ± 0.0042
level (log10) ([4]; 60000 nM): 0.025 ± 0.011
level (log10) ([5]; 6700 nM): -0.024 ± 0.021
level (log10) ([5]; 20000 nM): -0.0235 ± 0.015
level (log10) ([5]; 60000 nM): 0.0015 ± 0.029
level (log10) ([6]; 6700 nM): -0.018 ± 0.0042
level (log10) ([6]; 20000 nM): 0.0275 ± 0.0078
level (log10) ([6]; 60000 nM): -0.35 ± 0.037
level (log10) ([7]; 6700 nM): -0.0405 ± 0.03
level (log10) ([7]; 20000 nM): -0.026 ± 0.0071
level (log10) ([7]; 60000 nM): -0.0095 ± 0.005
level (log10) ([8]; 6700 nM): -0.0065 ± 0.0078
level (log10) ([8]; 20000 nM): 0.015 ± 0.014
level (log10) ([8]; 60000 nM): -0.013 ± 0.0014
level (log10) ([9]; 6700 nM): -0.025 ± 0.024
level (log10) ([9]; 20000 nM): -0.02 ± 0.0042
level (log10) ([9]; 60000 nM): -0.026 ± 0.0071
level (log10) ([10]; 6700 nM): -0.005 ± 0.0014
level (log10) ([10]; 20000 nM): -0.0085 ± 0.0064
level (log10) ([10]; 60000 nM): 0.0115 ± 0.015
level (log10) ([11]; 6700 nM): -0.007 ± 0.0014
level (log10) ([11]; 20000 nM): -0.0045 ± 0.0092
level (log10) ([11]; 60000 nM): 0.0095 ± 0.023
level (log10) ([12]; 6700 nM): -0.014 ± 0.0099
level (log10) ([12]; 20000 nM): -0.01 ± 0.0057
level (log10) ([12]; 60000 nM): 0.008 ± 0.033
level (log10) ([13]; 6700 nM): -0.014 ± 0.035
level (log10) ([13]; 20000 nM): -0.0465 ± 0.015
level (log10) ([14]; 6700 nM): -0.018 ± 0.0042
level (log10) ([14]; 20000 nM): -0.008 ± 0.0028
level (log10) ([14]; 60000 nM): 0.007 ± 0.04
level (log10) ([15]; 6700 nM): -0.026 ± 0.0042
level (log10) ([15]; 20000 nM): -0.0175 ± 0.011
level (log10) ([15]; 60000 nM): 0.009 ± 0.042
level (log10) ([16]; 6700 nM): -0.004 ± 0.021
level (log10) ([16]; 20000 nM): -0.0045 ± 0.0078
level (log10) ([16]; 60000 nM): 0.016 ± 0.021
level (log10) [17]: -0.0485 ± 0.0078
level (log10) ([18]; 6700 nM): -0.0585 ± 0.015
level (log10) ([18]; 20000 nM): -0.0435 ± 0.005
level (log10) ([18]; 60000 nM): -0.131 ± 0.028
level (log10) ([19]; 6700 nM): -0.041 ± 0.038
level (log10) ([19]; 20000 nM): -0.004 ± 0.0057

— the supplement of paper PMC10331698
